Columns and labels:
[1] = tested on: patients with treatment-resistant depression (TRD); conditions: cited from earlier work
depressive symptoms = conditions: cited from earlier work
PTSD patients = conditions: three clusters: re-experiencing, avoidance and numbing, hyperarousal; cited from earlier work
[2] = tested on: patients with treatment-resistant major depression (TRD); test: Planned randomized placebo-controlled double-blind trial of lithium + ketamine in TRD; assay type: in vivo, human
Excerpt: A single-site early phase study will enroll patients with treatment-resistant major depression (TRD) in a randomized, placebo (PLC)-controlled, double blind clinical trial of lithium (Li)+ketamine (KET). The study will efficiently test the efficacy of Li compared to PLC in continuing the antidepressant response to KET. The study occurs in several phases. During a Screening phase participants undergo informed consent followed by a thorough medical and psychiatric evaluation. Eligible participants who meet all study inclusion/exclusion criteria receive a single Test KET(ketamine) Infusion to determine antidepressant response status. Non-responders [defined as <50% improvement in depression severity as measured by the Montgomery-Asberg Depression Rating Scale (MADRS) 24 hours following the infusion] are exited from the study and provided with standard of care. KET responders (2:50% improvement in MADRS) proceed to the Li/PLC treatment phase in which participants receive up to 1200 mg/day of Li or matching PLC under double blind conditions. Participants proceed to a 4-week Continuation Phase while remaining on their treatment assignment (Li/PLC) during which time depressive symptoms are monitored twice weekly. The primary outcome is depression severity as measured by the MADRS in the Li compared to PLC group at the 2-week point during the Continuation Phase. […]

[3] = tested on: patients with treatment-resistant major depression; conditions: cited from earlier work
[4] = tested on: patients with treatment-resistant major depression; conditions: cited from earlier work; remark: listed apart in the source
PTSD symptom severity = conditions: assessed 24 hours after infusion; cited from earlier work
[5] = tested on: patients with BPD, TRD, MDD and PTSD; conditions: cited from earlier work

## Nc1nc2ccc(OC(F)(F)F)cc2s1 [riluzole]
[1]; TRD
  relapse prevention following ketamine compared to placebo: not superior to placebo
Depressive symptoms; 4-week study
  relapse prevention following ketamine compared to placebo: no benefit of riluzole beyond placebo

## Fc1ccc([C@@H]2CCNC[C@H]2COc2ccc3c(c2)OCO3)cc1 [paroxetine]
PTSD patients
  efficacy in PTSD: modest effect sizes and limited efficacy

## O=C([O-])[O-].[Li+].[Li+] [lithium, lithium carbonate]
[2]; ketamine responders receiving lithium, after last dose of ketamine
  anticipated maintenance of the ketamine anti-depressant effect: at least two or three months
[2]; lithium carbonate 300-1800 mg daily
  expected duration of therapeutic effect of lithium following a response to ketamine: at least 3 months

## CNC1(c2ccccc2Cl)CCCCC1=O (centres unmarked) [ketamine]
[1]; 4-week observation period after ketamine
  cumulative risk of relapse: 62%
[1]; 26 TRD patients, single open-label IV infusion 0.5 mg/kg
  response rate (reduction of 50% or more on MADRS): 65%
[3]; 24 hours after single IV infusion 0.5 mg/kg, P<0.001
  improvement in MADRS score compared to midazolam group: significantly greater improvement
[3]; no longer separated from placebo at 7-day time point
  duration of efficacy following a ketamine infusion: 1 week
[3]; no patient beyond this time
  duration of dissociative or psychotomimetic effects: ≤ 2 h
[3]; single IV infusion 0.5 mg/kg
  safety and tolerability: very safe and well tolerated
Depressive symptoms; 4-week assessment period after ketamine
  cumulative probability of relapse: 73%
[4]; 3-month observation period, free of concomitant medication
  cumulative risk of relapse: 70%
[4]; after first ketamine infusion
  time to rapid improvement in depressive symptoms: ≤ 24 h
[4]; following sixth and final ketamine infusion
  median time to relapse: 18 days
[4]; repeated infusions over 2 weeks
  overall response rate: 70.8%
PTSD symptom severity
  reduction in PTSD symptom severity compared with midazolam: significant and rapid reduction
[5]; as early as, following single intravenous administration
  onset of antidepressant effects: 40 min
[5]; following a single administration
  duration of antidepressant efficacy: a few days to approximately a week or two

## CN[C@H]1CC[C@@H](c2ccc(Cl)c(Cl)c2)c2ccccc21 [sertraline]
PTSD patients
  efficacy in PTSD: modest effect sizes and limited efficacy

— patent US20180015054A1, “Method of Maintaining the Anti-Depressant Effect of Ketamine With Lithium” (Icahn School of Medicine at Mount Sinai, priority 2014, published 2018)
